From patent US10583112B2, “Benzo[b]furans as bromodomain inhibitors” (GlaxoSmithKline Intellectual Property (No. 2) Limited, priority 2016, dated 2020)

biological target: T1, BRD4 BD2 (Homo sapiens, UniProt O60885, Y97A); experiment: BRD4 BD2 TR-FRET competition assay; type: binding; settings: mean where stated, n given; read-out: pIC50 in the BRD4 BD2 TR-FRET assay (converted)
T1 construct: BRD4 (1-477) (Y97A) and (Y390A); made in house; host or cells: E. coli (pET15b vector)
Method: Bromodomain binding was assessed utilising a time resolved fluorescent resonance energy transfer (TR-FRET) competition assay. […] Europium chelate, conjugated to an anti-6*His antibody, was utilised as the donor fluorophore in the TR-FRET pair.
In order to generate a TR-FRET signal, donor fluorophore is excited by a laser at λ337 nm, which subsequently leads to emission at λ618 nm.
In order to monitor differential binding to either BD1 or BD2, single residue mutations of key tyrosines to alanine were made in the acetyl lysine binding pockets. To validate this approach, a double residue mutant tandem domain protein was produced for each of the BET family members.
Final purification was completed by Superdex 200 prep grade size exclusion column. Purified protein was stored at −80° C. in 20 mM HEPES pH 7.5 and 100 mM NaCl.
All assay components were dissolved in an assay buffer composing of 50 mM HEPES pH7.4, 50 mM NaCl, 5% Glycerol, 1 mM DTT and 1 mM CHAPS. […] An equal volume of 3 nM of anti-6*His Europium chelate was added to all wells, followed by a further 30 minute incubation at room temperature. TR-FRET was detected using a Perkin Elmer Multimode plate reader, by exciting the donor fluorophore at λ337 nm and subsequently, after a delay of 50 μsecs, measuring emission of the donor and acceptor fluorophores at λ615 nm and λ665 nm, respectively.
cA four parameter curve fit of the following form was then applied: y=a+((b−a)/(1+(10^x/10^c)^d) • Where ‘a’ is the minimum, ‘b’ is the Hill slope, ‘c’ is the pIC50 and ‘d’ is the maximum.

IC50, 1 to 100 µM:
CNC(=O)c1cc(C(=O)N[C@@H]2C[C@H]2CCO)cc2c1O[C@@H](CF)[C@@H]2c1ccccc1 (mixture of isomers) [Example 196, (2R,3R)-2-(fluoromethyl)-N^5-((trans)-2-(2-hydroxyethyl)cyclopropyl)-N^7-methyl-3-phenyl-2,3-dihydrobenzofuran-5,7-dicarboxamide (diastereomeric mixture)]
CNC(=O)c1cc(C(=O)N[C@H]2C[C@@H]2CCO)cc2c1O[C@@H](CF)[C@@H]2c1ccccc1 (mixture of isomers) [Example 197, 2R,3R)-2-(fluoromethyl)-N^5-((trans)-2-(2-hydroxyethyl)cyclopropyl)-N^7-methyl-3-phenyl-2,3-dihydrobenzofuran-5,7-dicarboxamide (diastereomeric mixture)]
CNC(=O)c1cc(C(=O)NCCOC)cc2c1O[C@H](CO)[C@H]2c1cccc(OC)c1 (relative stereo) [Example 34, (2S*,3S*)-2-(Hydroxymethyl)-N^5-(2-methoxyethyl)-3-(3-methoxyphenyl)-N^7-methyl-2,3-dihydrobenzofuran-5,7-dicarboxamide]
CNC(=O)c1cc(C(=O)NCCn2cnnc2)cc2c1O[C@H](CF)[C@H]2c1ccccc1 (relative stereo) [Example 133, (Trans)-N^5-(2-(4H-1,2,4-triazol-4-yl)ethyl)-2-(fluoromethyl)-N^7-methyl-3-phenyl-2,3-dihydrobenzofuran-5,7-dicarboxamide]
CNC(=O)c1cc(C(=O)NCCCC2CCNCC2(F)F)cc2c1O[C@@H](C)[C@@H]2c1ccccc1 (single isomer, unassigned) [Example 198, (2S,3R)-N5-(3-((S*)-3,3-difluoropiperidin-4-yl)propyl)-N7,2-dimethyl-3-phenyl-2,3-dihydrobenzofuran-5,7-dicarboxamide]
CNC(=O)c1cc(C(=O)NCC(C)O)cc2c1O[C@H](C)[C@H]2c1ccccc1 (stereo partly drawn) [Example 6, (2R,3S)—N^5-(2-Hydroxypropyl)-N^7,2-dimethyl-3-phenyl-2,3-dihydrobenzofuran-5,7-dicarboxamide]
CNC(=O)c1cc(C(=O)NCC(C)O)cc2c1O[C@@H](C)[C@H]2c1ccccc1 (stereo partly drawn) [Example 7, (2S,3S)—N^5-(2-hydroxypropyl)-N^7,2-dimethyl-3-phenyl-2,3-dihydrobenzofuran-5,7-dicarboxamide]
CNC(=O)c1cc(C(=O)N[C@H]2[C@@H]3COC[C@@H]32)cc2c1O[C@H](C)[C@H]2c1cccc(OCCO)c1 [Example 85, (2R,3S)—N^5-((1R,5S,6R)-3-Oxabicyclo[3.1.0]hexan-6-yl)-3-(3-(2-hydroxyethoxy)phenyl)-N^7,2-dimethyl-2,3-dihydrobenzofuran-5,7-dicarboxamide]
CNC(=O)c1cc(C(=O)NC)c2c(c1)[C@@H](c1ccccc1)[C@H](C)O2 [Example 100, (2S,3R)-N^5,N^7,2-trimethyl-3-phenyl-2,3-dihydrobenzofuran-5,7-dicarboxamide]
CCNC(=O)c1cc(C(=O)NC)c2c(c1)[C@@H](c1ccccc1)[C@H](C)O2 [Example 101, (2S,3R)-N^5-ethyl-N^7,2-dimethyl-3-phenyl-2,3-dihydrobenzofuran-5,7-dicarboxamide]
CNC(=O)c1cc(C(=O)NC2CC2)cc2c1O[C@@H](C)[C@@H]2c1ccccc1 [Example 102, (2S,3R)-N^5-cyclopropyl-N^7,2-dimethyl-3-phenyl-2,3-dihydrobenzofuran-5,7-dicarboxamide]
CNC(=O)c1cc(C(=O)NC2CC2)cc2c1O[C@H](C)[C@@H]2c1ccccc1 [Example 103, (2R,3R)-N^5-cyclopropyl-N^7,2-dimethyl-3-phenyl-2,3-dihydrobenzofuran-5,7-dicarboxamide]
CNC(=O)c1cc(C(=O)NC2CC2)cc2c1O[C@@H](CO)[C@@H]2c1ccccc1 [Example 104, (2R,3R)-N^5-cyclopropyl-2-(hydroxymethyl)-N^7-methyl-3-phenyl-2,3-dihydrobenzofuran-5,7-dicarboxamide]
CNC(=O)c1cc(C(=O)NCC(C)O)cc2c1O[C@@H](C)[C@@H]2c1ccccc1 (stereo partly drawn) [Example 107, (2S,3R)-N^5-(2-hydroxypropyl)-N^7,2-dimethyl-3-phenyl-2,3-dihydrobenzofuran-5,7-dicarboxamide]
CNC(=O)c1cc(C(=O)NC2C[C@H]2CCO)cc2c1O[C@H](CF)[C@H]2c1ccccc1 (stereo partly drawn) [Example 132, (2S,3S)-2-(Fluoromethyl)-N^5-((trans)-2-(2-hydroxyethyl)cyclopropyl)-N^7-methyl-3-phenyl-2,3-dihydrobenzofuran-5,7-dicarboxamide]
CCC(=O)N1C[C@@H]2[C@H](C1)[C@H]2NC(=O)c1cc(C(=O)NC)c2c(c1)[C@@H](c1ccccc1)[C@H](CF)O2 [Example 164, (2R,3R)-2-(Fluoromethyl)-N^7-methyl-3-phenyl-N^5-((1R,5S,6s)-3-propionyl-3-azabicyclo[3.1.0]hexan-6-yl)-2,3-dihydrobenzofuran-5,7-dicarboxamide]
CNC(=O)c1cc(C(=O)Nc2nncn2C)cc2c1O[C@H](CF)[C@H]2c1ccccc1 [Example 172]
CNC(=O)c1cc(C(=O)Nc2nnn(C)n2)cc2c1O[C@H](CF)[C@H]2c1ccccc1 [Example 174, (2S,3S)-2-(Fluoromethyl)-N^7-methyl-N^5-(2-methyl-2H-tetrazol-5-yl)-3-phenyl-2,3-dihydrobenzofuran-5,7-dicarboxamide]
CNC(=O)c1cc(C(=O)N[C@H]2[C@@H]3COC[C@@H]32)cc2c1O[C@@H](C)[C@@H]2c1cccc(OCCO)c1 [Example 181, (2S,3R)-N^5-((1R,5S,6r)-3-oxabicyclo[3.1.0]hexan-6-yl)-3-(3-(2-hydroxyethoxy)phenyl)-N^7,2-dimethyl-2,3-dihydrobenzofuran-5,7-dicarboxamide]
CNC(=O)c1cc(C(=O)NCCc2cccnc2)cc2c1O[C@@H](C)[C@@H]2c1cccc(OCCO)c1 [Example 183, (2S,3R)-3-(3-(2-hydroxyethoxy)phenyl)-N^7,2-dimethyl-N^5-(2-(pyridin-3-yl)ethyl)-2,3-dihydrobenzofuran-5,7-dicarboxamide]
CNC(=O)c1cc(C(=O)N[C@@H]2C[C@H]2CO)cc2c1O[C@@H](CF)[C@@H]2c1ccccc1 [Example 184, (2R,3R)-2-(fluoromethyl)-N^5-((1R,2R)-2-(hydroxymethyl)cyclopropyl)-N^7-methyl-3-phenyl-2,3-dihydrobenzofuran-5,7-dicarboxamide]
CNC(=O)c1cc(C(=O)Nc2cn[nH]c2)cc2c1O[C@@H](CF)[C@@H]2c1ccccc1 [Example 186, (2R,3R)-2-(fluoromethyl)-N^7-methyl-3-phenyl-N^5-(1H-pyrazol-4-yl)-2,3-dihydrobenzofuran-5,7-dicarboxamide]
CNC(=O)c1cc(C(=O)Nc2cnn(C)c2)cc2c1O[C@@H](CF)[C@@H]2c1ccccc1 [Example 187, (2R,3R)-2-(fluoromethyl)-N^7-methyl-N^5-(1-methyl-1H-pyrazol-4-yl)-3-phenyl-2,3-dihydrobenzofuran-5,7-dicarboxamide]
CNC(=O)c1cc(C(=O)NCCc2cnn(C)c2)cc2c1O[C@@H](C)[C@@H]2c1ccccc1 [Example 188, (2S,3R)-N^7,2-dimethyl-N^5-(2-(1-methyl-1H-pyrazol-4-yl)ethyl)-3-phenyl-2,3-dihydrobenzofuran-5,7-dicarboxamide]
CNC(=O)c1cc(C(=O)N[C@H]2[C@@H]3CN(C(C)=O)C[C@@H]32)cc2c1O[C@@H](C)[C@@H]2c1ccccc1 [Example 189, (2S,3R)-N^5-((1R,5S,6s)-3-acetyl-3-azabicyclo[3.1.0]hexan-6-yl)-N^7,2-dimethyl-3-phenyl-2,3-dihydrobenzofuran-5,7-dicarboxamide]
CNC(=O)c1cc(C(=O)N[C@H]2[C@@H]3CN(C(C)=O)C[C@@H]32)cc2c1O[C@@H](CF)[C@@H]2c1ccccc1 [Example 190, (2R,3R)-N^5-((1R,5S,6s)-3-acetyl-3-azabicyclo[3.1.0]hexan-6-yl)-2-(fluoromethyl)-N^7-methyl-3-phenyl-2,3-dihydrobenzofuran-5,7-dicarboxamide]
CNC(=O)c1cc(C(=O)Nc2ncn(C)n2)cc2c1O[C@@H](CF)[C@@H]2c1ccccc1 [Example 192, (2R,3R)-2-(fluoromethyl)-N^7-methyl-N^5-(1-methyl-1H-1,2,4-triazol-3-yl)-3-phenyl-2,3-dihydrobenzofuran-5,7-dicarboxamide]
